# Target: PI3Kα (Homo sapiens, UniProt P42336, H1047R)
# Assay: ADP-Glo IC50 assay
# Type: biochemical
# Settings: class symbols; key not given
# Chain of PI3Kα (P42336 whole entry H1047R): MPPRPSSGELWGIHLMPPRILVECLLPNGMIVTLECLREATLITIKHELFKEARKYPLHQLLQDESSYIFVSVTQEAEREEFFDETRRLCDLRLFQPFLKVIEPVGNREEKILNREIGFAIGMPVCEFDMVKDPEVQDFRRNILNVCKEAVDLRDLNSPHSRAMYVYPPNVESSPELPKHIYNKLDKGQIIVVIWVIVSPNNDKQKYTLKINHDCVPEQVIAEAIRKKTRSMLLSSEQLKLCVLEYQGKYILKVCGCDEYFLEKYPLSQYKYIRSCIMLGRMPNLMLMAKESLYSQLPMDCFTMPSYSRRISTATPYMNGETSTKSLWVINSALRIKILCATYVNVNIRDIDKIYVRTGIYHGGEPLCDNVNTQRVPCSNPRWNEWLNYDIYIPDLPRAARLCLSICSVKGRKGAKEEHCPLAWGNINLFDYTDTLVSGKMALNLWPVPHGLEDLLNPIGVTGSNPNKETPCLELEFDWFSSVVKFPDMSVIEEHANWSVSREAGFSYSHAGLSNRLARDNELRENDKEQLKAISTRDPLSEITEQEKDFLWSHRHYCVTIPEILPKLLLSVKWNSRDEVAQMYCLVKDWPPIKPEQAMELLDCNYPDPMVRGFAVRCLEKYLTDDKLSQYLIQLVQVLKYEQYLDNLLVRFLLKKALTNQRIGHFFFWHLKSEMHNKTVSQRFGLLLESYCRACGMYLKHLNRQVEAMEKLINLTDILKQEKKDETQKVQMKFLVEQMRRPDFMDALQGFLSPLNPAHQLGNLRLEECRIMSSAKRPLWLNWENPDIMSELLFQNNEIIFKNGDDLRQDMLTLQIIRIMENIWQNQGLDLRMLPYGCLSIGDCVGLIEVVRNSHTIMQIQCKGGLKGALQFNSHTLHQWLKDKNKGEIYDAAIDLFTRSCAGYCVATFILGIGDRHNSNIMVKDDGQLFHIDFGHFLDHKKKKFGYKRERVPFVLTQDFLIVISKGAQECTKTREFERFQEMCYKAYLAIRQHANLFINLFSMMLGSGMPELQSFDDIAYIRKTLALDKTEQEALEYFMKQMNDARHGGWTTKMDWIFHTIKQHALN
# Chain of PI3Kα (P27986 whole entry partner): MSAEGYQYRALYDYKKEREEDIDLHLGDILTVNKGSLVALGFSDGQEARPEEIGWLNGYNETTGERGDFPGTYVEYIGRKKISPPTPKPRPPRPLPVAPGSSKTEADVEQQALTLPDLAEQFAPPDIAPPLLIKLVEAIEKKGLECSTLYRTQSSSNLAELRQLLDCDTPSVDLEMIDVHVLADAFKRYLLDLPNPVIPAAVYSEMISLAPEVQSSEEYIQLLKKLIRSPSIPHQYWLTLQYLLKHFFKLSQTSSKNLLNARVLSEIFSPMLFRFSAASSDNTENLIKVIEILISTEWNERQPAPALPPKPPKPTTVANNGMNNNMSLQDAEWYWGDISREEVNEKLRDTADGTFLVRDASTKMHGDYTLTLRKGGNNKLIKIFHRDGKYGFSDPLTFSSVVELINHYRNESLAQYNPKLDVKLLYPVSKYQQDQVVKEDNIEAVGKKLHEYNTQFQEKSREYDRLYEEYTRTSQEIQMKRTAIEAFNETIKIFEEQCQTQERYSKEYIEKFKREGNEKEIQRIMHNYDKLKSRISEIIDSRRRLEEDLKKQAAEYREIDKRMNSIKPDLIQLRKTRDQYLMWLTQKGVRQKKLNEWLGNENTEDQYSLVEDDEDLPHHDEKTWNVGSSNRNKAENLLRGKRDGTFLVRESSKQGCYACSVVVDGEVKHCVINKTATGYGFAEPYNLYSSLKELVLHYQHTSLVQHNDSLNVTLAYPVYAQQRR
row,SMILES,IC50
1,O=C1CCC(N2Cc3cc(C#CCNC(=O)c4cc(NC(=O)c5cc(F)cc(C(F)(F)F)c5)c5c(c4)C(=O)N[C@@H]5c4cc(F)ccc4Cl)ccc3C2=O)C(=O)N1 (some centres unmarked) [Example I-102],< 0.1 µM
2,Cc1ccccc1Nc1ncc(C(=O)NCCCCCCCC(=O)N[C@H](C(=O)N2C[C@H](O)C[C@H]2C(=O)NCc2ccc(-c3scnc3C)cc2)C(C)(C)C)cc1NC(=O)c1csc2ccccc12 [Example I-18],0.1 to 0.5 µM
3,O=C(CCCCCCCNC(=O)c1cc(NC(=O)c2cc(F)cc(C(F)(F)F)c2)c2c(c1)C(=O)N[C@@H]2c1cc(F)ccc1Cl)NCc1ccc2c(c1)CN(C1CCC(=O)NC1=O)C2=O (some centres unmarked) [Example I-92],0.5 to 1 µM
4,NC(=O)CCCCCCCCCNC(=O)c1cc(NC(=O)c2cc(F)cc(C(F)(F)F)c2)c2c(c1)C(=O)N[C@@H]2c1cc(F)ccc1Cl [Example I-83],< 0.1 µM
5,Cc1ccccc1Nc1ncc(C(=O)NCCCCCCC(=O)N[C@H](C(=O)N2C[C@H](O)C[C@H]2C(=O)N[C@@H](C)c2ccc(-c3scnc3C)cc2)C(C)(C)C)cc1NC(=O)c1csc2ccccc12 [Example I-23],0.1 to 0.5 µM
6,Cc1ncsc1-c1ccc(CNC(=O)[C@@H]2C[C@@H](O)CN2C(=O)[C@@H](NC(=O)CCCCCCCCCNC(=O)c2cnc(Nc3cc(F)ccc3Cl)c(NC(=O)c3csc4ccccc34)c2)C(C)(C)C)cc1 [Example I-45],0.1 to 0.5 µM
7,O=C1CCC(N2C(=O)c3ccc(NCCOCCOCCOCCOCCOCCOCCOCCOCCOCCOCCOCCOCCNC(=O)c4cc(NC(=O)c5cc(F)cc(C(F)(F)F)c5)c5c(c4)C(=O)N[C@@H]5c4cc(F)ccc4Cl)cc3C2=O)C(=O)N1 (some centres unmarked) [Example I-151],1 to 10 µM
8,Cc1ncsc1-c1ccc(CNC(=O)[C@@H]2C[C@@H](O)CN2C(=O)[C@@H](NC(=O)CCCCCCCCCNC(=O)c2cc(NC(=O)c3nsc4ccccc34)c3n2CC(=O)N[C@H]3c2cc(F)ccc2Cl)C(C)(C)C)cc1 [Example I-105],0.5 to 1 µM
9,O=C1CCC(N2C(=O)c3ccc(NCCCCNC(=O)c4cc(NC(=O)c5cc(F)cc(C(F)(F)F)c5)c5c(c4)C(=O)N[C@H]5c4cc(F)ccc4Cl)cc3C2=O)C(=O)N1 (some centres unmarked) [Example I-100],< 0.1 µM
10,O=C1CCC(N2Cc3cc(C(=O)NCCOCCOCCOCCOCCOCCOCCOCCOCCOCCOCCOCCOCCNC(=O)c4cc(NC(=O)c5cc(F)cc(C(F)(F)F)c5)c5c(c4)C(=O)N[C@H]5c4cc(F)ccc4Cl)ccc3C2=O)C(=O)N1 (some centres unmarked) [Example I-157],0.5 to 1 µM
11,O=C1CCC(N2C(=O)c3ccc(NCCCCCCCNC(=O)c4cc(NC(=O)c5cc(F)cc(C(F)(F)F)c5)c5c(c4)C(=O)N[C@H]5c4cc(F)ccc4Cl)cc3C2=O)C(=O)N1 (some centres unmarked) [Example I-90],< 0.1 µM
12,O=C1CCC(N2C(=O)c3ccc(NCCCCNC(=O)c4cc(NC(=O)c5cc(F)cc(C(F)(F)F)c5)c5c(c4)C(=O)N[C@@H]5c4cc(F)ccc4Cl)cc3C2=O)C(=O)N1 (some centres unmarked) [Example I-94],0.5 to 1 µM
13,Cc1ccccc1Nc1ncc(C(=O)NCCCCCCCCNC(=O)c2ccc3c(c2)CN(C2CCC(=O)NC2=O)C3=O)cc1NC(=O)c1csc2ccccc12 (centres unmarked) [Example I-21],0.1 to 0.5 µM
14,O=C1CCC(N2Cc3cc(C(=O)NCCCCCCCCCNC(=O)c4cc(NC(=O)c5cccc(F)c5)c5c(c4)C(=O)N[C@@H]5c4cc(F)ccc4Cl)ccc3C2=O)C(=O)N1 (some centres unmarked) [Example I-161],1 to 10 µM
15,Cc1ccccc1Nc1ncc(C(=O)NCCCCNc2cccc3c2C(=O)N(C2CCC(=O)NC2=O)C3=O)cc1NC(=O)c1csc2ccccc12 (centres unmarked) [Example I-49],0.1 to 0.5 µM
16,Cc1ccccc1Nc1ncc(C(=O)NCCCNc2ccc3c(c2)C(=O)N(C2CCC(=O)NC2=O)C3=O)cc1NC(=O)c1csc2ccccc12 (centres unmarked) [Example I-56],< 0.1 µM
17,Cc1ccccc1Nc1ncc(C(=O)NCCOCCOCCC(=O)N[C@H](C(=O)N2C[C@H](O)C[C@H]2C(=O)N[C@@H](C)c2ccc(-c3scnc3C)cc2)C(C)(C)C)cc1NC(=O)c1csc2ccccc12 [Example I-40],1 to 10 µM
18,Cc1ccccc1Nc1ncc(C(=O)Nc2ccc(N3CCN(c4ccc5c(c4)C(=O)N(C4CCC(=O)NC4=O)C5=O)CC3)cc2)cc1NC(=O)c1csc2ccccc12 (centres unmarked) [Example I-55],0.1 to 0.5 µM
19,Cc1ccccc1Nc1ncc(C(=O)NCCCCC(=O)N[C@H](C(=O)N2C[C@H](O)C[C@H]2C(=O)N[C@@H](C)c2ccc(-c3scnc3C)cc2)C(C)(C)C)cc1NC(=O)c1csc2ccccc12 [Example I-65],0.5 to 1 µM
20,Cc1ccccc1Nc1ncc(C(=O)NCCCCCCNc2cccc3c2C(=O)N(C2CCC(=O)NC2=O)C3=O)cc1NC(=O)c1csc2ccccc12 (centres unmarked) [Example I-59],0.5 to 1 µM
21,O=C1CCC(N2Cc3cc(C(=O)NCCCCCCCCCNC(=O)c4cc(NC(=O)c5cccc(C(F)(F)F)c5)c5c(c4)C(=O)N[C@@H]5c4cc(F)ccc4Cl)ccc3C2=O)C(=O)N1 (some centres unmarked) [Example I-155],1 to 10 µM
22,O=C1CCC(N2C(=O)c3ccc(NCCCCNC(=O)c4cnc(Nc5cc(F)ccc5Cl)c(NC(=O)c5csc6ccccc56)c4)cc3C2=O)C(=O)N1 (centres unmarked) [Example I-97],0.1 to 0.5 µM

# More lines, now with the values ahead:
row,IC50,SMILES
1,0.1 to 0.5 µM,Cc1ccccc1Nc1ncc(C(=O)NCCCNC(=O)c2ccc3c(c2)CN(C2CCC(=O)NC2=O)C3=O)cc1NC(=O)c1csc2ccccc12 (centres unmarked) [Example I-61]
2,1 to 10 µM,Cc1cc([C@@H](C)Nc2ccccc2C(=O)O)c2oc(N3CCN(C(=O)CCOCCNc4ccc5c(c4)C(=O)N(C4CCC(=O)NC4=O)C5=O)CC3)cc(=O)c2c1 (some centres unmarked) [Example I-144]
3,1 to 10 µM,Cc1cc([C@H](C)Nc2ccccc2C(=O)O)c2oc(N3CCN(C(=O)CCCNc4ccc5c(c4)C(=O)N(C4CCC(=O)NC4=O)C5=O)CC3)cc(=O)c2c1 (some centres unmarked) [Example I-147]
4,< 0.1 µM,Cc1cc([C@@H](C)Nc2ccccc2C(=O)O)c2oc(N3CCN(C(=O)CCOCCOCCNC(=O)c4cnc(Nc5ccccc5C)c(NC(=O)c5csc6ccccc56)c4)CC3)cc(=O)c2c1 [Example I-125]
5,1 to 10 µM,Cc1cc([C@@H](C)Nc2ccccc2C(=O)O)c2oc(N3CCN(C(=O)CCC(=O)NCc4ccc5c(c4)C(=O)N(C4CCC(=O)NC4=O)C5)CC3)cc(=O)c2c1 (some centres unmarked) [Example I-149]
6,1 to 10 µM,Cc1cc([C@H](C)Nc2ccccc2C(=O)O)c2oc(N3CCN(C(=O)CCC(=O)NCc4ccc5c(c4)C(=O)N(C4CCC(=O)NC4=O)C5)CC3)cc(=O)c2c1 (some centres unmarked) [Example I-127]
7,1 to 10 µM,Cc1cc([C@H](C)Nc2ccccc2C(=O)O)c2oc(N3CCN(C(=O)CCNc4ccc5c(c4)C(=O)N(C4CCC(=O)NC4=O)C5=O)CC3)cc(=O)c2c1 (some centres unmarked) [Example I-130]
8,1 to 10 µM,Cc1cc([C@H](C)Nc2ccccc2C(=O)O)c2oc(N3CCN(C(=O)CCOCCNc4ccc5c(c4)C(=O)N(C4CCC(=O)NC4=O)C5=O)CC3)cc(=O)c2c1 (some centres unmarked) [Example I-138]
9,0.5 to 1 µM,Cc1cc([C@@H](C)Nc2ccccc2C(=O)O)c2oc(N3CCN(C(=O)CCNc4cccc5c4C(=O)N(C4CCC(=O)NC4=O)C5=O)CC3)cc(=O)c2c1 (some centres unmarked) [Example I-135]
10,0.1 to 0.5 µM,Cc1cc(Br)c2oc(N3CCN(C(=O)CCCCCNC(=O)c4cnc(Nc5ccccc5C)c(NC(=O)c5csc6ccccc56)c4)CC3)cc(=O)c2c1 [Example I-101]
11,1 to 10 µM,Cc1cc([C@H](C)Nc2ccccc2C(=O)O)c2oc(N3CCN(C(=O)CCCNc4cccc5c4C(=O)N(C4CCC(=O)NC4=O)C5=O)CC3)cc(=O)c2c1 (some centres unmarked) [Example I-133]
12,1 to 10 µM,Cc1ccccc1Nc1ncc(C(=O)NCCOCCOCCOCCC(=O)NCc2ccc3c(c2)CN(C2CCC(=O)NC2=O)C3=O)cc1NC(=O)c1csc2ccccc12 (centres unmarked) [Example I-26]
13,1 to 10 µM,Cc1ccccc1Nc1ncc(C(=O)NCCOCCOCCOCCOCCC(=O)NCc2ccc3c(c2)CN(C2CCC(=O)NC2=O)C3=O)cc1NC(=O)c1csc2ccccc12 (centres unmarked) [Example I-47]

# — patent US20260131009A1, “BIFUNCTIONAL PI3K-ALPHA INHIBITORS AND USES THEREOF” (Relay Therapeutics, Inc., priority 2021, published 2026)
